We go through four molecules from US20230270696A1, “MEDICINAL USE OF FINGOLIMOD IN PREVENTION AND TREATMENT OF NEURODEGENERATIVE DISEASES CAUSED BY SPHINGOLIPID DISORDERS” (priority 2020, published 2023).

Where a name gives a salt, the structure may show the parent alone.

Assay [1] concerns ATP13A2 KO spastic paraplegic model mice. Put plainly: Standing test (number of standing per 30 minutes). The format is in vivo, mouse. On the procedure: 1-7 days with administration treatment on the disease model mice (shaded), 7-14 days with discontinuation treatment (unshaded), and 15-21 days with restored secondary administration treatment (shaded).
Experimental method: Spastic paraplegic ATP13A2 KO mice (KO mice) are divided into four groups and given normal saline or FTY720 dissolved in normal saline at 0.05, 0.1, and 0.5 mg/kg/day for oral administration, and the mice are tested in a standing test after 7 days of oral administration.
Experimental method: The experiment is divided into two groups: C57BL/6 wild normal mice (WT) and ATP13A2 KO spastic paraplegic model mice (KO), which are administered FTY720 0.5 mg/k/day orally at the same time, discontinued after 0-7 days of administration, and resumed after one week of discontinuation, during which the mice are tested for standing every other day.
(§1) Experimental method: The experiment is divided into four groups: C57BL/6 normal WT mice+normal saline control group (WT+C group), ATP13A2 KO aged disease model mice+normal saline control group (KO+C group), normal WT mice+FTY720 group (WT+FTY720 group), and ATP13A2 KO neurodegenerative disease model mice+FTY720 group (KO+FTY720 group). The mice are administered orally (0.5 mg/kg/day), and after two weeks, the movement function of the mice is examined using the standing test and the rotating rod test.

The subject of assay [2] is MEF cells deficient in ATP13A2. Kind of assay: Drug screening: intracellular sphingomyelin (SM C18) content by mass spectrometry. In kind it is cell-based, mouse. Conditions: ATP13A2 KO MEF cells treated 48 hours (FIG. 8 legend: 10 μM, 37° C., 24 h). Here is the method:
Experimental method: ten potential sphingolipid metabolic drugs reported in the literature for screening the modulatory effects on intracellular sphingolipids are selected, namely Fingolimod, Fluoxetine, Amitriptyline, Clomipramine, Desipramine, Siponimod, KRP-203, Amlodipine, Sertraline, Trimipramine, etc. MEF cells with disease-causing gene ATP13A2 KO are obtained using the disease model mouse embryos isolated and cultured. The MEF cells deficient in ATP13A2 are treated with the above ten drugs individually for 48 hours, and the intracellular content of sphingomyelin (SM C18) is measured by mass spectrometry.

Assay [3] relates to ATP13A2 KO neurodegenerative disease model mice. Put plainly: Brain tissue neurotransmitter content by HPLC. In kind it is in vivo, mouse. Conditions: one week after i.p. 0.5 mg/kg, striatum, hypothalamus, substantia nigra. On the procedure:
Experimental method: the experiment is divided into four groups: C57BL/6 normal WT mice+normal saline control group (WT+C group), ATP13A2 KO neurodegenerative disease model mice+normal saline control group (KO+C group), normal WT mice+FTY720 group (WT+FTY720 group), and ATP13A2 KO neurodegenerative disease model mice+FTY720 group (KO+FTY720 group). One week after mice are injected intraperitoneally with FTY720 (0.5 mg/kg), samples are taken from the striatum, hypothalamus, and substantia nigra of mouse brain tissue to extract neurotransmitters in the brain. Using a high performance liquid chromatography, neurotransmitters such as dopamine, serotonin, and γ-aminobutyric acid are analyzed.

The test system is the same in assay [4]. Put plainly: Rotating rod test of movement function. In kind it is in vivo, mouse. On the procedure:
Experimental method: five drugs, including fingolimod, fluoxetine, clomipramine, desipramine, and trimipramine, are selected for oral administration (0.5 mg/kg) to diseased mice. The effect of the drugs on the movement function of the mice is examined one week after drug administration.
Experimental method: The experiment is divided into four groups: C57BL/6 normal WT mice+normal saline control group (WT+C group), ATP13A2 KO neurodegenerative disease model mice+normal saline control group (KO+C group), normal WT mice+FTY720 group (WT+FTY720 group), and ATP13A2 KO neurodegenerative disease model mice+FTY720 group (KO+FTY720 group). The mice are injected intraperitoneally with FTY720 (0.25 mg/kg/day, i.p.). 5 days later, the mice are tested for movement function using a rotating rod test.
Experimental method: The experiment is divided into four groups: C57BL/6 normal WT mice+normal saline control group (WT+C group), ATP13A2 KO neurodegenerative disease model mice+normal saline control group (KO+C group), normal WT mice+FTY720 group (WT+FTY720 group), ATP13A2 KO neurodegenerative disease model mice+FTY720 group (KO+FTY720 group). FTY720 dissolved in water is administered to mice orally administered (0.5 mg/kg/day), and one week later, the mice are tested for movement function using the rotating rod test.
Experimental method: The experiment is divided into four groups: C57BL/6 normal WT mice+normal saline control group (WT+C group), ATP13A2 KO neurodegenerative disease model mice+normal saline control group (KO+C group), normal WT mice+FTY720 group (WT+FTY720 group), and ATP13A2 KO neurodegenerative disease model mice+FTY720 group (KO+FTY720 group). A single administration (10 μg, i.c.v.) is administered to the mice by ventricular injection, and one week later, the mice are tested for movement function using the rotating rod test.
as §1

Assay [5] relates to aged ATP13A2 KO paraplegic mouse. Put plainly: Standing in beaker and hind limb foot-based angle (FBA) before and after drug administration. In kind it is in vivo. On the procedure:
as §1
Meanwhile, the same aged ATP13A2 KO neurodegenerative disease mouse is placed in an upright glass beaker to observe its standing (FIG. 19). […] The angle of the hind limb to the ground (FBA, foot-based angle) in the aged ATP13A2 KO paraplegic mouse is also measured.

For the next assay, the system named is sphingomyelinase. Put plainly: Sphingomyelinase activity assay (Sphingomyelinase Assay Kit ab138876) with or without FTY720. In kind it is biochemical. Conditions: different sphingomyelinase concentrations, sphingomyelin as substrate, 60 min at 37° C., absorbance. Here is the method:
Different concentrations (horizontal axis) of purified sphingomyelinase are added in the presence or absence of FTY720 and incubation proceeded for 60 min at 37° C., before measuring sphingomyelin breakdown in absorbance. Blue line (top line): value of sphingomyelinase activity under normal control conditions, red line (bottom line): value of sphingomyelinase activity in the presence of FTY720.
Embodiment 4: Direct inhibition of sphingomyelinase by FTY720 Experimental method: FTY720 is purchased from Sigma, Cas No. 162359-56-0. Sphingomyelinase activity is determined using the Sphingomyelinase Assay Kit (ab138876) kit. The experiment is divided into two groups: normal sphingomyelinase activity assay group and sphingomyelinase activity assay group in the presence of FTY720.

Assay [6] deals with ATP13A2 KO neurodegenerative disease model mice. Kind of assay: Lipidomic assay of striatum brain tissue (LC-MS). The format is in vivo, mouse. The note with it: one week after i.p. 0.5 mg/kg. Here is the method:
Experimental method: the experiment is divided into 4 groups: C57BL/6 normal WT mice+normal saline control group (WT+C group), ATP13A2 KO neurodegenerative disease model mice+normal saline control group (KO+C group), normal WT mice+FTY720 group (WT+FTY720 group), and ATP13A2 KO neurodegenerative disease model mice+FTY720 group (KO+FTY720 group). One week after intraperitoneal injection of FTY720 (0.5 mg/kg), mice are sampled from the striatum of brain tissue, lipids are extracted from the brain tissue samples using a lipid extraction method, appropriate internal standards are added. All lipid analysis is performed in electrospray ionization (ESI) mode using a liquid mass spectrometer.

Assay [7] shares this test system. Put plainly: Transmission electron microscopy of brain tissue (lipofuscin deposition, axonal myelin sheath tearing). In kind it is in vivo, mouse. The note with it: two weeks after oral administration, TEM. An excerpt:
Experimental method: The experiments are divided into three groups: C57BL/6 wild normal mice (WT), ATP13A2 KO neurodegenerative disease model mice+normal saline control (KO+C), and FTY720 treatment ATP13A2 KO mice (KO+FTY720). Mice are executed two weeks after oral administration, and brain tissue is removed and fixed for transmission electron microscopy analysis.

Assay [8] shares this test system. Kind of assay: Expression of genes related to sphingolipid metabolism in orbitofrontal cortex. In kind it is in vivo, mouse. Conditions: one week after i.p. 0.5 mg/kg. On the procedure:
Red (dark) color indicates high expression and blue (light) color indicates low expression.
Experimental method: the experiment is divided into 4 groups: C57BL/6 normal WT mice+normal saline control group (WT+C group), ATP13A2 KO neurodegenerative disease model mice+normal saline control group (KO+C group), normal WT mice+FTY720 group (WT+FTY720 group), and ATP13A2 KO neurodegenerative disease model mice+FTY720 group (KO+FTY720 group). One week after intraperitoneal injection of FTY720 (0.5 mg/kg), samples are extracted from the orbitofrontal cortex area of mouse brain tissue, and Smpd1 Smpd2 Smpd3 Smpd4 Enpp7 Asah1 Asah2 Acer1 Acer2 Acer3 Cers1 Cers2 Cers3 Cers4 Cers5 Cers6 Col4a3 bp Cerk Gba Ugcg Degs1 Degs2 Sgpl1 Sptlc1 Sptic2 Sptic3 Abca1 Abca2 Abca7 Abca12 Abcc1 Abcg1 Abcg2 Sgms1 Sgms2 Cftr Sphk1 Sphk2 Slpr1 Kit Hexa Hexb Gal3st1 Gaphdh TERC TERT Ki67, etc. totally 47 genes related to sphingolipid metabolism are analyzed for comparison.

The mark [9] stands for this setting: aged ATP13A2 KO mice, oral 0.5 mg/kg/day, two weeks.

`CCCCCCCCc1ccc(CCC(N)(CO)CO)cc1` [FTY720, 2-amino-2-[2-(4-octylphenyl)]-1,3-propanediol hydrochloride]: the number of standing result in assay [1] (setting [9]) is reported as “significant increase”. Moreover, the “number of standing after drug discontinuation” value in assay [1] (one week of discontinuation after 7 days oral 0.5 mg/k/day) was “gradual decrease”. Moreover, the “number of standing per 30 minutes during administration” value in assay [1] (oral 0.5 mg/k/day, days 0-7, ATP13A2 KO paraplegic mice) is “increases significantly with increasing administration time”. Moreover, the “number of standing per 30 minutes” value in assay [1] (oral 0.05, 0.1 and 0.5 mg/kg/day, after 7 days, ATP13A2 KO paraplegic mice) is “increased to different degrees in a dose-dependent manner”. The “number of standing after resumption of administration” value in assay [1] (resumed oral administration, days 15-21) was “gradual increase”. In assay [2], the “intracellular sphingomyelin (SM C18) content” value is “most obvious elevation”. Further, the “neurotransmitter contents (dopamine, serotonin, γ-aminobutyric acid) in brain tissue” value in assay [3] is listed as “restored to the normal group level”. In addition, the “duration of stay in the rotating rod” value is “significantly longer” in assay [4] (0.25 mg/kg/day i.p., 5 days, ATP13A2 KO mice vs control group); “significantly longer” in assay [4] (setting [9]); “significantly longer” in [4] (oral 0.5 mg/kg/day, one week, ATP13A2 KO mice vs control group); “significantly longer” in [4] (single 10 μg i.c.v., one week later, ATP13A2 KO mice vs control group). The “motor function (rotating rod), screen of five drugs” value in [4] (oral 0.5 mg/kg, one week after drug administration, ATP13A2 KO mice) is “improves the motor function of the ATP13A2 KO disease model mice among the five drugs with the most significant effect”. In addition, the “standing in an upright glass beaker after drug administration” value in [5] (same aged ATP13A2 KO mouse before and after drug, oral 0.5 mg/kg/day) was “can be photographed to stand up by clinging to the beaker wall”. Moreover, the “angle of the hind limb to the ground (FBA, foot-based angle)” value in [5] (same aged ATP13A2 KO paraplegic mouse before and after drug) is reported as “significant increase”. Besides, the “sphingomyelinase activity compared to the control group” value with sphingomyelinase is “significant decrease”. Moreover, the “content of sphingomyelin and ceramide in striatum” value in [6] is listed as “mostly restores to the normal group level”. In addition, the “number of intracellular lipofuscins in brain tissue” value in [7] (more than 100 cells counted) was “significantly reduced”. Moreover, in [7] (more than 100 myelin sheaths counted), the “number of torn axonal myelin sheaths in brain tissue” value was “significantly reduced”. In addition, the “expression of cers4, cerk and sphk1” value in assay [8] is on record as “downregulated”. Besides, the “expression of smpd1 and enpp7” value in assay [8] is recorded as “upregulated”.
In the case of `CN(C)CCC=C1c2ccccc2CCc2ccccc21` [amitriptyline], the “intracellular sphingomyelin (SM C18) content” value in assay [2] is on record as “most obvious elevation”.
On the same count and under the same terms, to `CN(C)CCCN1c2ccccc2CCc2ccc(Cl)cc21` [clomipramine] belongs “most obvious elevation”; to `CNCCC(Oc1ccc(C(F)(F)F)cc1)c1ccccc1` (centres unmarked) [fluoxetine], “most obvious elevation”.
